Where two headings read alike, the source gives them in different places.
Tests used:
[1] = Pharmacokinetics in patients after multiple administrations; assay type: in vivo, human; conditions: for AUC(0-inf) / AUC(0-t) / Cmax / Tmax / Vd/F / half-life / MRT last: human, serum, oral; for MRT last: read-out: MRT0→t
Text: Additional File 6: Table S4. Mean pharmacokinetic parameters of patients after multiple administrations in each dosage group

[2] = system: relapsed or refractory B-cell malignancies; assay: Phase 1 dose escalation: efficacy (ORR, DCR, PFS) in patients; assay type: in vivo, human
Protocol: Patients ≥ 18 years old with refractory or relapsed B-cell malignancies were enrolled from November, 2017 to completion of the trial in November, 2019. Inclusion and exclusion criteria are listed in Additional file 2 and baseline patient characteristics in Additional file 3: Table S2.
During dose escalation, patients received YY-20394 tablets q.d. at dosages of 20, 40, 80, 140 or 200 mg. The maximum tolerated dose (MTD), dose escalation phase and dose-limiting toxicity (DLT) as well as hematological toxicity classifications are described in Additional file 4. The primary endpoints were safety, tolerability and the MTD of YY-20394. Secondary endpoints were PK parameters and efficacy. Response criteria followed the revised International Research Working Group (IRWG) for non-Hodgkin lymphomas (NHL), and the International Working Group on Chronic Lymphocytic Leukemia (IWCLL) criteria for CLL [8]. Efficacy determinations were the objective response rate (ORR), disease control rate (DCR), complete remission (CR), partial remission (PR), stable disease (SD), progressive disease (PD) and progression-free survival (PFS).

PI3Kα = assay: PI3K isoform selectivity, α versus δ; assay type: biochemical
PI3Kβ = assay: PI3K isoform selectivity, β versus δ; assay type: biochemical
basophil activation = assay: Inhibition of basophil activation in vitro; assay type: cell-based; conditions: at the serum concentration produced by the 80 mg dose level
[3] = Pharmacokinetics in patients after a single dose; assay type: in vivo, human; conditions: for AUC(0-inf) / AUC(0-t) / Cmax / Tmax / Vd/F / half-life / MRT last / MRT inf: human, serum, oral; for AUC(0-inf) / AUC(0-t) / Cmax / Tmax / Vd/F / half-life / MRT last / MRT inf / CL/F: single dose; for MRT last: read-out: MRT0→t; for MRT inf: read-out: MRT0→∞
Text: Additional File 5: Table S3. Mean pharmacokinetic parameters of patients after a single dose in each dosage group

PI3Kδ = PI3Kδ (Homo sapiens, UniProt O00329); assay: PI3Kδ kinase inhibition; assay type: biochemical
[4] = 10 FL patients, 9/10, 95% CI 71.4, 100.0
[5] = number of patients of 25 evaluable

PI3Kδ, sequence (O00329 whole entry): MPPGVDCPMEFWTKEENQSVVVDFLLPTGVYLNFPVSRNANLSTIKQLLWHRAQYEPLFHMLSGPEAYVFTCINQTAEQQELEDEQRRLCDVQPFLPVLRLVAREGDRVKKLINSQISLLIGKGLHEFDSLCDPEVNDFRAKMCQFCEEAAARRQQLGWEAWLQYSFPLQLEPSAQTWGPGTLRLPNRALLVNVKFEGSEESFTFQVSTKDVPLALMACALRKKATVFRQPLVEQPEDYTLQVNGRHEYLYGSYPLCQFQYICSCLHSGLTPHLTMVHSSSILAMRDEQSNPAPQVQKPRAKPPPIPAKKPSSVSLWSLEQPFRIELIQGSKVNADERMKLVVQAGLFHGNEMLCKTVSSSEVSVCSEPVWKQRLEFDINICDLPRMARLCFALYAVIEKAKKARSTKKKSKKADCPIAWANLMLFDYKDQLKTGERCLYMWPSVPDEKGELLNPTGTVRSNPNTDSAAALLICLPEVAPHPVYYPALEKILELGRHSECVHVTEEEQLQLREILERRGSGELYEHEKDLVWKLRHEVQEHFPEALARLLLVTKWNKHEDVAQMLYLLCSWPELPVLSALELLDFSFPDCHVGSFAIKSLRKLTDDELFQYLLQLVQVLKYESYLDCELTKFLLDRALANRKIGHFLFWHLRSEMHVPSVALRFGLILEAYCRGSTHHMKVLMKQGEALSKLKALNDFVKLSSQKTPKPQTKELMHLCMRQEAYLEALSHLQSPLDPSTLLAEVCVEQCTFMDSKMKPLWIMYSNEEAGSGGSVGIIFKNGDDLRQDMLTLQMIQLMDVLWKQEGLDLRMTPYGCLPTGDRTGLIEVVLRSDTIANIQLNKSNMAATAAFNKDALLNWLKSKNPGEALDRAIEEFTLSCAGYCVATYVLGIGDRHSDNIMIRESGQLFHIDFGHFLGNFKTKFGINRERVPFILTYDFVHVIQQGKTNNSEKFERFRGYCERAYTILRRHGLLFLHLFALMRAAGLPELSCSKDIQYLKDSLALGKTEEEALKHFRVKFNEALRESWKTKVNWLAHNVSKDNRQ
PI3Kδ, sequence (P27986 whole entry partner): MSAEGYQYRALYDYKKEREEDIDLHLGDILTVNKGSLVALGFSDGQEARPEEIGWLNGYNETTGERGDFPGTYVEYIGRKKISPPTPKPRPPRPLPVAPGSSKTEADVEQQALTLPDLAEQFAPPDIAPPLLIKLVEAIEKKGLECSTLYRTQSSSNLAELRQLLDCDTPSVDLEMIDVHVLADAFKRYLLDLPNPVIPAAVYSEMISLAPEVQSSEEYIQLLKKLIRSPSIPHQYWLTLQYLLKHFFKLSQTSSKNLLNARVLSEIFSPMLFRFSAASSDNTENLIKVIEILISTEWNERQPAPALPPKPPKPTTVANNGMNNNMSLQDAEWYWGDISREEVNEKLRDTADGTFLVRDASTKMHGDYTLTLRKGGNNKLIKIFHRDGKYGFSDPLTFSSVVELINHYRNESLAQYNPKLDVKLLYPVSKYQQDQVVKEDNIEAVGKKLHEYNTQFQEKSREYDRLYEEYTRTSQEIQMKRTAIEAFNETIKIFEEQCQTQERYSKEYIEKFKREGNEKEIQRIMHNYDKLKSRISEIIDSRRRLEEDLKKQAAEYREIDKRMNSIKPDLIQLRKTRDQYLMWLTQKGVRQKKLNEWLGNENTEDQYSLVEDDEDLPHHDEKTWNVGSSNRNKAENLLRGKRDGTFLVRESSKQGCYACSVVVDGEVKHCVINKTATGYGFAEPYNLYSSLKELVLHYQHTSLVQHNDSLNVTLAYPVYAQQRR

In the case of COc1ncc(-c2nc(N3CCOCC3)nc3c(CN4CCC(C(C)(C)O)CC4)cc(F)cc23)cc1NS(C)(=O)=O [YY-20394, N-[5-[6-fluoro-8-[[4-(1-hydroxy-1-methylethyl)-1-piperidinyl]methyl]-2-(4-morpholinyl)-4-quinazolinyl]-2-methoxy-3-pyridinyl]-methanesulfonamide], the “Ratio of IC50 γ/δ” value (PI3Kγ) is reported as 1125, the “kinase inhibition profile more PI3Kδ-selective” value (PI3Kγ; PI3Kδ versus PI3Kγ, compared with idelalisib) is reported as ~2 orders of magnitude and the CL/F ([1]; 20 mg, mean) is reported as 16.3 L/h. For the same compound, the Cmin ([1]; 20 mg, mean) was 28.7 ng/mL, the Css ([1]; 20 mg, mean) was 51.0 ng/mL and the CL/F ([1]; 40 mg, mean ± SD) was 13.4 ± 3.7 L/h. The Cmin ([1]; 40 mg, mean ± SD) was 73.0 ± 32.5 ng/mL, the Css ([1]; 40 mg, mean ± SD) was 132.7 ± 43.0 ng/mL and the CL/F ([1]; 80 mg, mean ± SD) was 11.1 ± 3.1 L/h. It also gave a Cmin ([1]; 80 mg, mean ± SD) of 180.5 ± 74.5 ng/mL, a Css ([1]; 80 mg, mean ± SD) of 325.7 ± 97.8 ng/mL and a CL/F ([1]; 140 mg, mean ± SD) of 9.1 ± 0.6 L/h. It also gave a Cmin ([1]; 140 mg, mean ± SD) of 359.6 ± 31.5 ng/mL, a Css ([1]; 140 mg, mean ± SD) of 642.3 ± 40.2 ng/mL and a CL/F ([1]; 200 mg, mean ± SD) of 9.4 ± 2.2 L/h. For the same compound, the Cmin ([1]; 200 mg, mean ± SD) was 472.4 ± 71.6 ng/mL, the Css ([1]; 200 mg, mean ± SD) was 918.6 ± 201.7 ng/mL and the “exposure (Cmax, AUC0-t, AUC0-∞) versus dose” value ([1]; 20 to 200 mg) was “increased with dosage”. The AUC(0-inf) ([1]; 20 mg, mean) was 4010 ng·h/mL, the AUC(0-t) ([1]; 20 mg, mean) was 1220 ng·h/mL and the Cmax ([1]; 20 mg, mean) was 94.6 ng/mL. For the same compound, the Tmax ([1]; 20 mg, mean) was 4 h, the Vd/F ([1]; 20 mg, mean) was 930 L and the half-life ([1]; 20 mg, mean) was 39.5 h. The MRT last ([1]; 20 mg, mean) was 65.7 h, the AUC(0-inf) ([1]; 40 mg, mean ± SD) was 5500 ng·h/mL and the AUC(0-t) ([1]; 40 mg, mean ± SD) was 3190 ng·h/mL. It also gave a Cmax ([1]; 40 mg, mean ± SD) of 208 ± 58.3 ng/mL, a Tmax ([1]; 40 mg, mean ± SD) of 2.7 ± 1.2 h and a Vd/F ([1]; 40 mg, mean ± SD) of 392 ± 228 L. For the same compound, the half-life ([1]; 40 mg, mean ± SD) was 19.7 ± 7.2 h, the MRT last ([1]; 40 mg, mean ± SD) was 28.1 ± 10.5 h and the AUC(0-inf) ([1]; 80 mg, mean ± SD) was 16600 ng·h/mL. For the same compound, the AUC(0-t) ([1]; 80 mg, mean ± SD) was 7820 ng·h/mL, the Cmax ([1]; 80 mg, mean ± SD) was 529 ± 170 ng/mL and the Tmax ([1]; 80 mg, mean ± SD) was 2.4 ± 1.7 h. For the same compound, the Vd/F ([1]; 80 mg, mean ± SD) was 388 ± 392 L, the half-life ([1]; 80 mg, mean ± SD) was 25.3 ± 25.5 h and the MRT last ([1]; 80 mg, mean ± SD) was 36.4 ± 37.6 h. For the same compound, the AUC(0-inf) ([1]; 140 mg, mean ± SD) was 24300 ng·h/mL, the AUC(0-t) ([1]; 140 mg, mean ± SD) was 15400 ng·h/mL and the Cmax ([1]; 140 mg, mean ± SD) was 1190 ng/mL. The Tmax ([1]; 140 mg, mean ± SD) was 3.7 ± 2.5 h, the Vd/F ([1]; 140 mg, mean ± SD) was 215 ± 10 L and the half-life ([1]; 140 mg, mean ± SD) was 16.4 ± 0.3 h. It also gave an MRT last ([1]; 140 mg, mean ± SD) of 23.4 ± 1.5 h, an AUC(0-inf) ([1]; 200 mg, mean ± SD) of 36300 ng·h/mL and an AUC(0-t) ([1]; 200 mg, mean ± SD) of 22000 ng·h/mL. It also gave a Cmax ([1]; 200 mg, mean ± SD) of 1610 ng/mL, a Tmax ([1]; 200 mg, mean ± SD) of 2 ± 1.5 h and a Vd/F ([1]; 200 mg, mean ± SD) of 239 ± 110 L. For the same compound, the half-life ([1]; 200 mg, mean ± SD) was 17.5 ± 6.3 h, the MRT last ([1]; 200 mg, mean ± SD) was 25.3 ± 8.8 h and the longest treatment duration ([2]; 40 mg, CLL/SLL patient) was 36 months. For the same compound, the “median PFS time, follicular lymphoma” value ([2]; 10 FL patients) was 300 days, the “DCR, follicular lymphoma” value [2, 4] was 90% and the “ORR, follicular lymphoma” value [2, 4] was 90%. The “overall ORR” value ([2]; 25 evaluable patients, 16/25, 95% CI 45.2, 82.8%) was 64.0%, the “disease control rate (DCR)” value ([2]; 25 evaluable patients, 18/25, 95% CI 54.4, 89.6%) was 72.0% and the “median PFS time” value ([2]; all evaluable patients combined) was 255 days. For the same compound, the “CR, follicular lymphoma” value ([2]; number of FL patients, 80 mg) was 3, the “PD, follicular lymphoma” value ([2]; number of FL patients, 200 mg) was 1 and the “PR, follicular lymphoma” value ([2]; number of FL patients, 1/40 mg and 5/80 mg) was 6. For the same compound, the “complete remission (CR)” value [2, 5] was 5, the “partial remission (PR)” value [2, 5] was 11 and the “progressive disease (PD)” value [2, 5] was 7. For the same compound, the durable response ([2]; one PR patient with CLL/SLL, 40 mg q.d.) was “around 36 months”, the “Ratio of IC50 α/δ” value (PI3Kα) was 252 and the “Ratio of IC50 β/δ” value (PI3Kβ) was 30. For the same compound, the “inhibition of basophil activation in vitro” value (basophil activation) was 90%, the AUC(0-inf) ([3]; 20 mg, mean) was 1390 ng·h/mL and the AUC(0-t) ([3]; 20 mg, mean) was 1140 ng·h/mL. It also gave a Cmax ([3]; 20 mg, mean) of 39.3 ng/mL, a Tmax ([3]; 20 mg, mean) of 4 h and a Vd/F ([3]; 20 mg, mean) of 576 L. For the same compound, the half-life ([3]; 20 mg, mean) was 27.8 h, the MRT last ([3]; 20 mg, mean) was 25 h and the MRT inf ([3]; 20 mg, mean) was 40.7 h. For the same compound, the AUC(0-inf) ([3]; 40 mg, mean ± SD) was 2410 ng·h/mL, the AUC(0-t) ([3]; 40 mg, mean ± SD) was 2270 ng·h/mL and the Cmax ([3]; 40 mg, mean ± SD) was 148 ± 24.5 ng/mL. For the same compound, the Tmax ([3]; 40 mg, mean ± SD) was 1.8 ± 0.3 h, the Vd/F ([3]; 40 mg, mean ± SD) was 445 ± 100 L and the half-life ([3]; 40 mg, mean ± SD) was 17.8 ± 1.4 h. For the same compound, the MRT last ([3]; 40 mg, mean ± SD) was 18 ± 0.9 h, the MRT inf ([3]; 40 mg, mean ± SD) was 22.4 ± 1.3 h and the AUC(0-inf) ([3]; 80 mg, mean ± SD) was 6880 ng·h/mL. The AUC(0-t) ([3]; 80 mg, mean ± SD) was 6510 ng·h/mL, the Cmax ([3]; 80 mg, mean ± SD) was 347 ± 90.2 ng/mL and the Tmax ([3]; 80 mg, mean ± SD) was 2.7 ± 1.5 h. It also gave a Vd/F ([3]; 80 mg, mean ± SD) of 302 ± 70.4 L, a half-life ([3]; 80 mg, mean ± SD) of 17.2 ± 1.8 h and an MRT last ([3]; 80 mg, mean ± SD) of 18.6 ± 1.9 h. It also gave an MRT inf ([3]; 80 mg, mean ± SD) of 22.7 ± 3.1 h, an AUC(0-inf) ([3]; 140 mg, mean ± SD) of 15300 ng·h/mL and an AUC(0-t) ([3]; 140 mg, mean ± SD) of 14200 ng·h/mL. For the same compound, the Cmax ([3]; 140 mg, mean ± SD) was 854 ± 289 ng/mL, the Tmax ([3]; 140 mg, mean ± SD) was 2 ± 1.7 h and the Vd/F ([3]; 140 mg, mean ± SD) was 236 ± 37.6 L. For the same compound, the half-life ([3]; 140 mg, mean ± SD) was 18 ± 3.6 h, the MRT last ([3]; 140 mg, mean ± SD) was 19.1 ± 3.6 h and the MRT inf ([3]; 140 mg, mean ± SD) was 24.8 ± 6.5 h. It also gave an AUC(0-inf) ([3]; 200 mg, mean ± SD) of 15000 ng·h/mL, an AUC(0-t) ([3]; 200 mg, mean ± SD) of 13100 ng·h/mL and a Cmax ([3]; 200 mg, mean ± SD) of 641 ± 378 ng/mL. For the same compound, the Tmax ([3]; 200 mg, mean ± SD) was 9.4 ± 10.1 h, the Vd/F ([3]; 200 mg, mean ± SD) was 318 ± 92.2 L and the half-life ([3]; 200 mg, mean ± SD) was 16 ± 1.9 h. For the same compound, the MRT last ([3]; 200 mg, mean ± SD) was 21.5 ± 6.4 h, the MRT inf ([3]; 200 mg, mean ± SD) was 21.8 ± 4 h and the “in vivo exposure (Cmax, AUC0-t, AUC0-∞) versus dose” value ([3]; single administrations, 20 to 140 mg) was “increased proportionally in a dose-dependent manner”. It also gave a CL/F ([3]; 20 mg, mean) of 14.4 L/h, a CL/F ([3]; 40 mg, mean ± SD) of 17.6 ± 4.8 L/h and a CL/F ([3]; 80 mg, mean ± SD) of 12.2 ± 2.6 L/h. For the same compound, the CL/F ([3]; 140 mg, mean ± SD) was 9.2 ± 0.5 L/h, the CL/F ([3]; 200 mg, mean ± SD) was 13.6 ± 2.4 L/h and the IC50 (PI3Kδ) was 4.6 nM.
